Laboratory results from ChEMBL document CHEMBL3301464, “MMV Malaria Box anti-babesial screening”.

How the values were obtained:
[1] = (§1) MMV: Anti-babesial activity assay. Parasite pRBCs at 1% parasitemia were cultivated in 100 ul with 96-well plates at 2.5% and 5% hematocrits. The parasites were cultivated in triplicate for 4 days without replacement of the medium for each concentration of the compound.; format: functional, Babesia bovis
[2] = as §1; format: functional, Babesia bigemina
[3] = as §1; format: functional, Babesia equi
[4] = as §1; format: functional, Babesia caballi

Structure (SMILES) | IC50 [1] | IC50 [2] | IC50 [3] | IC50 [4]
O=C(NCCCN1CCC(N2CCCCC2)CC1)C1=Cc2cc(Br)ccc2OC1 | 1 µM | 0.08 µM | 5.09 µM | 4.13 µM
Cc1nc2ccccc2c(O)c1CC=C(Cl)Cl | 4.27 µM | 10.7 µM | 15.2 µM | 3.02 µM
N#Cc1nc(Cc2cccc3ccccc23)oc1N1CCN(C(c2ccccc2)c2ccccc2)CC1 | 16.1 µM | 19.8 µM | 12 µM | 5.09 µM
COc1ccc(C2c3ccc4ccccc4c3Oc3ncn(CCCN(C)C)c(=N)c32)cc1 (centres undefined) | 0.052 µM | 0.033 µM | 0.49 µM | 7.26 µM
O=C(NCC(c1ccsc1)N1CCCCCC1)c1ccc(C(F)(F)F)cc1 (centres undefined) | 18.2 µM | 13.6 µM | 18.1 µM | 10 µM
OC(CNCc1ccccc1)Cn1c2ccccc2c2ccccc21 (centres undefined) | 3.25 µM | 18 µM | 4.19 µM | 3.9 µM
Cc1cc(C)c2nc(N3CCC(C(=O)NCCCN4CCC(N5CCCCC5)CC4)CC3)sc2c1 | 2.74 µM | 3.91 µM | 0.64 µM | 4.77 µM
COc1ccc(CNC(=O)c2cc3c(=O)n4ccccc4nc3n(CCc3ccccc3)c2=N)cc1 | 0.1 µM | 4.27 µM | 4.74 µM | 0.686 µM
CN(C)c1ccc(N2C(N)=NC(N)=NC2(C)C)cc1 | 1 µM | 12.9 µM | 10.1 µM | 5.06 µM
CCN(CC)CCn1c(=N)n(CC(O)c2ccc(Cl)c(Cl)c2)c2ccccc21 (centres undefined) | 10.1 µM | 17.2 µM | 3.91 µM | 5.62 µM
O=C(Nc1cccc(-c2nc3ccccc3[nH]2)c1)c1cccc(NC(=O)c2ccco2)c1 | 3.32 µM | 6.8 µM | 3.7 µM | 5.21 µM
Cc1ccc(CSCc2ccc(C(=O)NC3CC3)o2)cc1 | 8.31 µM | 15.2 µM | 4.48 µM | 12.9 µM
COc1ccccc1CNC(=O)C1c2ccccc2C(=O)N(CC(C)C)C1c1cccs1 (centres undefined) | 8.25 µM | 10 µM | 10 µM | 16.8 µM
O=C(NC1CCCC1)c1ccc(N2CCC(NCc3cccc(C(F)(F)F)c3)CC2)cc1 | 14 µM | 25 µM | 10 µM | 13.4 µM
Oc1ccccc1CN1CCN(C(c2ccccc2)c2ccccc2)CC1 | 15.3 µM | 25 µM | 4.37 µM | 3.72 µM
CC(=O)Nc1nnc(SCc2c(C)cc(C(C)(C)C)cc2C)s1 | > 25 µM | 11.4 µM | 15.8 µM | 12.8 µM
Cc1ccc(C2CC(C(F)(F)F)n3nc(C(=O)N4CCN(C(c5ccccc5)c5ccccc5)CC4)cc3N2)cc1 (centres undefined) | 9.55 µM | 15.9 µM | 12.6 µM | 0.98 µM
COc1ccc2nc(N)nc(C)c2c1 | 7.23 µM | 15.6 µM | 3.03 µM | 4.19 µM
COc1ccccc1CNC(=O)CCn1c(=O)[nH]c2ccccc2c1=O | 19.5 µM | 3.9 µM | 14.2 µM | 4.38 µM
O=C1c2ccccc2C2=Nc3ccccc3SC(c3cccc(F)c3)C12 (centres undefined) | 0.31 µM | 5.3 µM | 14.8 µM | 0.13 µM
Cc1cccc(N2C(=O)C3C(C2=O)C2(c4ccccc4)C(=O)C3(c3ccccc3)C(c3ccc4c(c3)OCO4)=C2c2ccc3c(c2)OCO3)c1 (centres undefined) | 17 µM | 25 µM | 13.9 µM | 5.5 µM

Structure (SMILES) | IC50 [1] | IC50 [2] | IC50 [3] | IC50 [4]
COc1cc(CNCCc2ccc(Cl)cc2)cc(OC)c1O | 10 µM | 5.81 µM | 12.6 µM | 6.85 µM
COc1nc(Nc2ccc(C(C)C)cc2)nc(OC)n1 | 1.03 µM | 10.1 µM | 12.3 µM | 0.076 µM
Cn1c(=O)n(C)c2cc(CNCCNc3ccnc4cc(Cl)ccc34)ccc21 | 0.071 µM | 0.081 µM | 0.1 µM | 0.489 µM
CC1=C(CC(=O)c2cccc([N+](=O)[O-])c2)C(=O)c2ccccc2C1=O | 0.36 µM | 0.49 µM | 4.85 µM | 6.86 µM
COc1ccc(C2Sc3ccccc3N=C3C2=C(O)c2ccccc23)cc1 (centres undefined) | 13.9 µM | 4.09 µM | 15.8 µM | 7.09 µM
Cn1c(=O)c2cc(C(=O)NCCCN3CCCCCC3)sc2c2ccccc21 | 10 µM | 8.03 µM | 5.35 µM | 13.9 µM
Cc1ccc(-c2nc3ccccc3o2)cc1NCc1cc(Cc2ccccc2)ccc1O | 7.13 µM | 1 µM | 9.67 µM | 1.05 µM
OC(CNCC1CCCO1)Cn1c2ccc(Cl)cc2c2cc(Cl)ccc21 (centres undefined) | 21.1 µM | 0.79 µM | 11.9 µM | 10 µM
COc1ccc2c(c1OC)C(=O)N1c3ccccc3N=C(c3ccc(C)cc3)CC21 (centres undefined) | 13 µM | 16.1 µM | 14.6 µM | 17.1 µM
CN(N=O)C1=C(NC2CCCCC2)C(=O)c2ccccc2C1=O | 0.59 µM | 4.13 µM | 0.76 µM | 0.41 µM
Cc1ccc(C(=O)c2oc3ccc4c(C)cc(=O)oc4c3c2C)cc1 | 0.07 µM | 0.065 µM | 0.054 µM | 9.18 µM
CCOC(=O)c1ccc2nc(-c3ccccc3)cc(O)c2c1 | > 25 µM | 14.1 µM | > 25 µM | 14.2 µM
CCN(CC)CCNc1ccnc2cc3ccccc3cc12 | 7.72 µM | 3.25 µM | 5.69 µM | 5.09 µM
O=C(Nc1ccsc1C(=O)NC1CCCCC1)c1ccc(F)cc1 | 0.08 µM | 0.1 µM | 5.64 µM | 17.7 µM
Cc1[nH]c(-c2ccc(F)cc2)cc1C(=O)NC1CCN(Cc2ccccc2)CC1 | 0.303 µM | 4.29 µM | 0.58 µM | 8.21 µM
Cc1ccc(-c2cc(C(=O)Nc3ccc(S(=O)(=O)N4CCCCC4)cc3)[nH]n2)c(O)c1 | > 25 µM | 2.45 µM | 8.25 µM | 10 µM
COc1ccc(-c2nc(NC(=O)CS(=O)(=O)c3ccc(F)cc3)sc2C)cc1 | 17.9 µM | 17 µM | 13.4 µM | 14.6 µM
CCOc1ccccc1CNC(=O)C1c2ccccc2C(=O)N(CC(C)C)C1c1cccs1 (centres undefined) | 0.83 µM | 0.1 µM | 12.4 µM | 14.3 µM
COc1ccc(-c2nonc2NC(=O)c2cccc(C)c2)cc1OC | 0.078 µM | 0.69 µM | 5.64 µM | 10 µM
Cc1ccc(C)c(-c2csc(Nc3ccc(C)c(C)c3)n2)c1 | 0.06 µM | 8.05 µM | 0.14 µM | 0.71 µM
COc1ccc(C(=O)NC(c2ccccc2Cl)c2cc(Cl)c3cccnc3c2O)cc1 (centres undefined) | 0.19 µM | 15.9 µM | 0.42 µM | 17.5 µM

Structure (SMILES) | IC50 [1] | IC50 [2] | IC50 [3] | IC50 [4]
Cc1cc(Nc2ccc(C)c(Cl)c2)n2nc(C(F)(F)F)nc2n1 | 15 µM | 14.8 µM | > 25 µM | 0.69 µM
CCOC(=O)C1=C(C)N=c2sc(=Cc3cc(Cl)ccc3O)c(=O)n2C1c1ccc(OC)cc1 (centres undefined) | 18.1 µM | 14.1 µM | 14.6 µM | 15.9 µM
CCOc1c(Br)cc(C2C(C(=O)OC)=CN(C)C=C2C(=O)OC)cc1OC | 0.072 µM | 0.25 µM | 9.18 µM | 11.9 µM
CCCCc1c(CCC)c(=N)c2ccccc2n1C | 0.087 µM | 0.059 µM | 15.2 µM | 1 µM
COc1ccc(-c2nc3cc(Cc4ccc5[nH]c(-c6ccc(OC)cc6)nc5c4)ccc3[nH]2)cc1 | 5.58 µM | 7.5 µM | 8.12 µM | 3.21 µM
CC1CN(C(=O)c2sc3ccccc3c2Cl)CC(C)O1 (centres undefined) | > 25 µM | 18.2 µM | 23.1 µM | 19.2 µM
CCOC(=O)c1cnc2ccc(CC)cc2c1O | > 25 µM | 17.5 µM | 14.9 µM | 13.5 µM
CC1CC2=C(CC1CNCCCN(C)C)C(C)(C)CCC2 (centres undefined) | 0.58 µM | 2.12 µM | 0.13 µM | 5.9 µM
CCCCc1ccc(NS(=O)(=O)c2cc3c4c(c2)CCN4C(=O)CC3)cc1 | 25 µM | 12.5 µM | 0.57 µM | 0.07 µM
CCOc1ccc(/C=C/c2nc(=O)c3ccccc3o2)cc1 | 1 µM | 3.03 µM | 12.5 µM | 19.4 µM
CN1CCN(c2ncnc3c2[nH]c2ccc(Cl)cc23)CC1 | 10 µM | 8.54 µM | 8.25 µM | 6.4 µM
O=C(Nc1ccc(Cl)c(Cl)c1)Nc1ccc(Cl)c(Cl)c1 | 0.59 µM | 2.95 µM | 0.21 µM | 4.91 µM
COc1cccc(Cn2c(Oc3ccccc3)nc3c2c(=O)n(C)c(=O)n3C)c1 | 10.3 µM | 10 µM | > 25 µM | 5.7 µM
CN1CCN(c2c3c(c(C#N)c4nc5ccccc5n24)CCC3)CC1 | 13.3 µM | 19.2 µM | 8.25 µM | > 25 µM
Cc1ccc2c(C)nc(Nc3nc(C)cc(-c4ccccc4)n3)nc2c1 | 16.8 µM | 7.95 µM | 14.4 µM | 4.13 µM
CCCCc1c(C)nc2c(OC)cccc2c1O | 10 µM | 15.3 µM | 14 µM | 5.64 µM
Cc1ccc(Cl)cc1N1CCN(CCCNC(=O)C2CCN(c3nc4ccccc4[nH]3)CC2)CC1 | 3.03 µM | 2.4 µM | 4.77 µM | 1 µM
CCOc1ccc(-c2nc(NC(=O)c3cccc(S(C)(=O)=O)c3)sc2C)cc1 | 4.48 µM | 15 µM | 17.7 µM | 11.9 µM
COc1ccc(NC(=O)C2c3ccccc3C(=O)N(CC(C)C)C2c2cccs2)cc1Cl (centres undefined) | 3.15 µM | 2.52 µM | 6.87 µM | 4.69 µM
